Measured values reported in ChEMBL document CHEMBL2057203, “Synthesis and evaluation of novel F-18 labeled 4-aminoquinazoline derivatives: potential PET imaging agents for tumor detection” (Bioorg Med Chem Lett, 2012).

Tests used:
Stomach [1] = test: Biodistribution in S180 tumor-bearing mouse stomach at 8 to 10 uCi, iv after 60 mins by gamma counting; format: ADME, organism-based; details: in vivo, 1 h
Muscle tissue [2] = test: Biodistribution in S180 tumor-bearing mouse muscle at 8 to 10 uCi, iv after 60 mins by gamma counting; format: ADME, organism-based; details: in vivo, 1 h
Heart [3] = test: Biodistribution in S180 tumor-bearing mouse heart at 8 to 10 uCi, iv after 5 mins by gamma counting; format: ADME, organism-based; details: in vivo
[4] = Chemical stability in PBS after 2 hrs by radio-HPLC analysis at 60 degC; format: physicochemical; details: buffer
Spleen [5] = test: Biodistribution in S180 tumor-bearing mouse spleen at 8 to 10 uCi, iv after 5 mins by gamma counting; format: ADME, organism-based; details: in vivo
Spleen [6] = test: Biodistribution in S180 tumor-bearing mouse spleen at 8 to 10 uCi, iv after 60 mins by gamma counting; format: ADME, organism-based; details: in vivo, 1 h
Lung [7] = test: Biodistribution in S180 tumor-bearing mouse lung at 8 to 10 uCi, iv after 120 mins by gamma counting; format: ADME, organism-based; details: in vivo, 2 h
Brain [8] = test: Biodistribution in S180 tumor-bearing mouse brain at 8 to 10 uCi, iv after 5 mins by gamma counting; format: ADME, organism-based; details: in vivo
Heart [9] = test: Biodistribution in S180 tumor-bearing mouse heart at 8 to 10 uCi, iv after 60 mins by gamma counting; format: ADME, organism-based; details: in vivo, 1 h
Kidney [10] = test: Biodistribution in S180 tumor-bearing mouse kidney at 8 to 10 uCi, iv after 30 mins by gamma counting; format: ADME, organism-based; details: in vivo, 0.5 h
Mus musculus [11] = test: Biodistribution in S180 cells xenografted in mouse tumor at 8 to 10 uCi, iv after 60 mins by gamma counting; format: ADME, organism-based, Neoplasm, CCRF S-180; details: in vivo, 1 h
Liver [12] = test: Biodistribution in S180 tumor-bearing mouse liver at 8 to 10 uCi, iv after 60 mins by gamma counting; format: ADME, organism-based; details: in vivo, 1 h
Nucleic Acid [13] = test: Ratio of drug level in tumor to brain in S180 tumor-bearing mouse at 8 to 10 uCi, iv at 5 mins by gamma counting; format: ADME, organism-based; details: in vivo
Muscle tissue [14] = test: Biodistribution in S180 tumor-bearing mouse muscle at 8 to 10 uCi, iv after 5 mins by gamma counting; format: ADME, organism-based; details: in vivo
Mus musculus [15] = test: Biodistribution in S180 cells xenografted in mouse tumor at 8 to 10 uCi, iv after 120 mins by gamma counting; format: ADME, organism-based, Neoplasm, CCRF S-180; details: in vivo, 2 h
Muscle tissue [16] = test: Biodistribution in S180 tumor-bearing mouse muscle at 8 to 10 uCi, iv after 30 mins by gamma counting; format: ADME, organism-based; details: in vivo, 0.5 h
Nucleic Acid [17] = test: Ratio of drug level in tumor to brain in S180 tumor-bearing mouse at 8 to 10 uCi, iv at 30 mins by gamma counting; format: ADME, organism-based; details: in vivo, 0.5 h
Kidney [18] = test: Biodistribution in S180 tumor-bearing mouse kidney at 8 to 10 uCi, iv after 120 mins by gamma counting; format: ADME, organism-based; details: in vivo, 2 h
Nucleic Acid [19] = test: Ratio of drug level in tumor to muscle in S180 tumor-bearing mouse at 8 to 10 uCi, iv at 30 mins by gamma counting; format: ADME, organism-based; details: in vivo, 0.5 h
Heart [20] = test: Biodistribution in S180 tumor-bearing mouse heart at 8 to 10 uCi, iv after 120 mins by gamma counting; format: ADME, organism-based; details: in vivo, 2 h
Mus musculus [21] = test: Biodistribution in S180 cells xenografted in mouse tumor at 8 to 10 uCi, iv after 30 mins by gamma counting; format: ADME, organism-based, Neoplasm, CCRF S-180; details: in vivo, 0.5 h
Brain [22] = test: Biodistribution in S180 tumor-bearing mouse brain at 8 to 10 uCi, iv after 30 mins by gamma counting; format: ADME, organism-based; details: in vivo, 0.5 h
Heart [23] = test: Biodistribution in S180 tumor-bearing mouse heart at 8 to 10 uCi, iv after 30 mins by gamma counting; format: ADME, organism-based; details: in vivo, 0.5 h
Stomach [24] = test: Biodistribution in S180 tumor-bearing mouse stomach at 8 to 10 uCi, iv after 120 mins by gamma counting; format: ADME, organism-based; details: in vivo, 2 h
Liver [25] = test: Biodistribution in S180 tumor-bearing mouse liver at 8 to 10 uCi, iv after 30 mins by gamma counting; format: ADME, organism-based; details: in vivo, 0.5 h
Liver [26] = test: Biodistribution in S180 tumor-bearing mouse liver at 8 to 10 uCi, iv after 5 mins by gamma counting; format: ADME, organism-based; details: in vivo
Nucleic Acid [27] = test: Ratio of drug level in tumor to muscle in S180 tumor-bearing mouse at 8 to 10 uCi, iv at 5 mins by gamma counting; format: ADME, organism-based; details: in vivo
Blood [28] = test: Biodistribution in S180 tumor-bearing mouse blood at 8 to 10 uCi, iv after 120 mins by gamma counting; format: ADME, organism-based; details: in vivo, 2 h
Lung [29] = test: Biodistribution in S180 tumor-bearing mouse lungs at 8 to 10 uCi, iv after 5 mins by gamma counting; format: ADME, organism-based; details: in vivo
Brain [30] = test: Biodistribution in S180 tumor-bearing mouse brain at 8 to 10 uCi, iv after 60 mins by gamma counting; format: ADME, organism-based; details: in vivo, 1 h
Nucleic Acid [31] = test: Ratio of drug level in tumor to blood in S180 tumor-bearing mouse at 8 to 10 uCi, iv at 30 mins by gamma counting; format: ADME, organism-based; details: tumour, 0.5 h
Blood [32] = test: Biodistribution in S180 tumor-bearing mouse blood at 8 to 10 uCi, iv after 5 mins by gamma counting; format: ADME, organism-based; details: in vivo
Nucleic Acid [33] = test: Ratio of drug level in tumor to muscle in S180 tumor-bearing mouse at 8 to 10 uCi, iv at 120 mins by gamma counting; format: ADME, organism-based; details: in vivo, 2 h
Nucleic Acid [34] = test: Ratio of drug level in tumor to blood in S180 tumor-bearing mouse at 8 to 10 uCi, iv at 120 mins by gamma counting; format: ADME, organism-based; details: tumour, 2 h
Spleen [35] = test: Biodistribution in S180 tumor-bearing mouse spleen at 8 to 10 uCi, iv after 120 mins by gamma counting; format: ADME, organism-based; details: in vivo, 2 h
Stomach [36] = test: Biodistribution in S180 tumor-bearing mouse stomach at 8 to 10 uCi, iv after 30 mins by gamma counting; format: ADME, organism-based; details: in vivo, 0.5 h
Nucleic Acid [37] = test: Ratio of drug level in tumor to brain in S180 tumor-bearing mouse at 8 to 10 uCi, iv at 60 mins by gamma counting; format: ADME, organism-based; details: in vivo, 1 h
Lung [38] = test: Biodistribution in S180 tumor-bearing mouse lung at 8 to 10 uCi, iv after 60 mins by gamma counting; format: ADME, organism-based; details: in vivo, 1 h
Muscle tissue [39] = test: Biodistribution in S180 tumor-bearing mouse muscle at 8 to 10 uCi, iv after 120 mins by gamma counting; format: ADME, organism-based; details: in vivo, 2 h
Nucleic Acid [40] = test: Ratio of drug level in tumor to muscle in S180 tumor-bearing mouse at 8 to 10 uCi, iv at 60 mins by gamma counting; format: ADME, organism-based; details: in vivo, 1 h
Nucleic Acid [41] = test: Ratio of drug level in tumor to blood in S180 tumor-bearing mouse at 8 to 10 uCi, iv at 60 mins by gamma counting; format: ADME, organism-based; details: tumour, 1 h
Stomach [42] = test: Biodistribution in S180 tumor-bearing mouse stomach at 8 to 10 uCi, iv after 5 mins by gamma counting; format: ADME, organism-based; details: in vivo
Blood [43] = test: Biodistribution in S180 tumor-bearing mouse blood at 8 to 10 uCi, iv after 60 mins by gamma counting; format: ADME, organism-based; details: in vivo, 1 h
Blood [44] = test: Biodistribution in S180 tumor-bearing mouse blood at 8 to 10 uCi, iv after 30 mins by gamma counting; format: ADME, organism-based; details: in vivo, 0.5 h
Mus musculus [45] = test: Biodistribution in S180 cells xenografted in mouse tumor at 8 to 10 uCi, iv after 5 mins by gamma counting; format: ADME, organism-based, Neoplasm, CCRF S-180; details: in vivo
Kidney [46] = test: Biodistribution in S180 tumor-bearing mouse kidney at 8 to 10 uCi, iv after 60 mins by gamma counting; format: ADME, organism-based; details: in vivo, 1 h
Kidney [47] = test: Biodistribution in S180 tumor-bearing mouse kidneys at 8 to 10 uCi, iv after 5 mins by gamma counting; format: ADME, organism-based; details: in vivo
Lung [48] = test: Biodistribution in S180 tumor-bearing mouse lung at 8 to 10 uCi, iv after 30 mins by gamma counting; format: ADME, organism-based; details: in vivo, 0.5 h
Spleen [49] = test: Biodistribution in S180 tumor-bearing mouse spleen at 8 to 10 uCi, iv after 30 mins by gamma counting; format: ADME, organism-based; details: in vivo, 0.5 h
Nucleic Acid [50] = test: Ratio of drug level in tumor to blood in S180 tumor-bearing mouse at 8 to 10 uCi, iv at 5 mins by gamma counting; format: ADME, organism-based; details: tumour
[51] = n-octanol-PBS partition coefficient, logP of the compound; format: physicochemical
Brain [52] = test: Biodistribution in S180 tumor-bearing mouse brain at 8 to 10 uCi, iv after 120 mins by gamma counting; format: ADME, organism-based; details: in vivo, 2 h
Plasma = test: Metabolic stability in mouse plasma after 2 hrs by radio-HPLC analysis; format: ADME, cell-free
Blood [53] = test: Clearance in S180 tumor-bearing mouse blood at 8 to 10 uCi, iv at 120 mins; format: ADME, organism-based; details: in vivo, 2 h
[54] = Chemical stability in PBS after 2 hrs by radio-HPLC analysis at room temperature; format: physicochemical; details: buffer
Nucleic Acid [55] = test: Ratio of drug level in tumor to brain in S180 tumor-bearing mouse at 8 to 10 uCi, iv at 120 mins by gamma counting; format: ADME, organism-based; details: in vivo, 2 h
Liver [56] = test: Biodistribution in S180 tumor-bearing mouse liver at 8 to 10 uCi, iv after 120 mins by gamma counting; format: ADME, organism-based; details: in vivo, 2 h

Compound `COc1cc2ncnc(Nc3cccc(Br)c3)c2cc1OCC[18F]` has a Drug uptake (Stomach [1]) of 4.05 % ID/g, a Drug uptake (Muscle tissue [2]) of 0.43 % ID/g and a Drug uptake (Heart [3]) of 4.79 % ID/g. The Stability [4] was “Stable”, the Drug uptake (Spleen [5]) was 2.84 % ID/g and the Drug uptake (Spleen [6]) was 0.8 % ID/g. For the same compound, the Drug uptake (Lung [7]) was 3.6 % ID/g, the Drug uptake (Brain [8]) was 0.78 % ID/g and the Drug uptake (Heart [9]) was 0.98 % ID/g. For the same compound, the Drug uptake (Kidney [10]) was 2.83 % ID/g, the Drug uptake (Mus musculus [11]) was 3.31 % ID/g and the Drug uptake (Liver [12]) was 1.87 % ID/g. The Ratio (Nucleic Acid [13]) was 0.49, the Drug uptake (Muscle tissue [14]) was 1.87 % ID/g and the Drug uptake (Mus musculus [15]) was 3.7 % ID/g. It also gave a Drug uptake (Muscle tissue [16]) of 2.46 % ID/g, a Ratio (Nucleic Acid [17]) of 10.36 and a Drug uptake (Kidney [18]) of 1.07 % ID/g. For the same compound, the Ratio (Nucleic Acid [19]) was 1.64, the Drug uptake (Heart [20]) was 1.87 % ID/g and the Drug uptake (Mus musculus [21]) was 4.04 % ID/g. For the same compound, the Drug uptake (Brain [22]) was 0.39 % ID/g, the Drug uptake (Heart [23]) was 1.12 % ID/g and the Drug uptake (Stomach [24]) was 4.1 % ID/g. It also gave a Drug uptake (Liver [25]) of 7.96 % ID/g, a Drug uptake (Liver [26]) of 9.67 % ID/g and a Ratio (Nucleic Acid [27]) of 0.2. It also gave a Drug uptake (Blood [28]) of 0.56 % ID/g, a Drug uptake (Lung [29]) of 12.21 % ID/g and a Drug uptake (Brain [30]) of 0.19 % ID/g. The Ratio (Nucleic Acid [31]) was 2.56, the Drug uptake (Blood [32]) was 4.43 % ID/g and the Ratio (Nucleic Acid [33]) was 2.82. The Ratio (Nucleic Acid [34]) was 6.61, the Drug uptake (Spleen [35]) was 1.05 % ID/g and the Drug uptake (Stomach [36]) was 7.03 % ID/g. The Ratio (Nucleic Acid [37]) was 17.42, the Drug uptake (Lung [38]) was 5.6 % ID/g and the Drug uptake (Muscle tissue [39]) was 1.31 % ID/g. For the same compound, the Ratio (Nucleic Acid [40]) was 7.7, the Ratio (Nucleic Acid [41]) was 2.98 and the Drug uptake (Stomach [42]) was 8.52 % ID/g. It also gave a Drug uptake (Blood [43]) of 1.11 % ID/g, a Drug uptake (Blood [44]) of 1.58 % ID/g and a Drug uptake (Mus musculus [45]) of 0.38 % ID/g. For the same compound, the Drug uptake (Kidney [46]) was 0.9 % ID/g, the Drug uptake (Kidney [47]) was 10.85 % ID/g and the Drug uptake (Lung [48]) was 5.12 % ID/g. The Drug uptake (Spleen [49]) was 1.25 % ID/g, the Ratio (Nucleic Acid [50]) was 0.09 and the logP [51] was 0.89. The Drug uptake (Brain [52]) was 0.09 % ID/g, the Stability (Plasma) was “Stable” and the CL (Blood [53]) was 88%. For the same compound, the Stability [54] was “Stable”, the Ratio (Nucleic Acid [55]) was 41.11 and the Drug uptake (Liver [56]) was 1.78 % ID/g.
